The values that follow come from ChEMBL document CHEMBL5291721, “A preclinical secondary pharmacology resource illuminates target-adverse drug reaction associations of marketed drugs” (Nat Commun, 2023).

Test [1] deals with 3',5'-cyclic-AMP phosphodiesterase 4D (Homo sapiens, UniProt Q08499). It is filed as functional.
For test [2], the target named is T1, Muscarinic acetylcholine receptor M1 (Homo sapiens, UniProt P11229).
T1 sequence (P11229 whole entry): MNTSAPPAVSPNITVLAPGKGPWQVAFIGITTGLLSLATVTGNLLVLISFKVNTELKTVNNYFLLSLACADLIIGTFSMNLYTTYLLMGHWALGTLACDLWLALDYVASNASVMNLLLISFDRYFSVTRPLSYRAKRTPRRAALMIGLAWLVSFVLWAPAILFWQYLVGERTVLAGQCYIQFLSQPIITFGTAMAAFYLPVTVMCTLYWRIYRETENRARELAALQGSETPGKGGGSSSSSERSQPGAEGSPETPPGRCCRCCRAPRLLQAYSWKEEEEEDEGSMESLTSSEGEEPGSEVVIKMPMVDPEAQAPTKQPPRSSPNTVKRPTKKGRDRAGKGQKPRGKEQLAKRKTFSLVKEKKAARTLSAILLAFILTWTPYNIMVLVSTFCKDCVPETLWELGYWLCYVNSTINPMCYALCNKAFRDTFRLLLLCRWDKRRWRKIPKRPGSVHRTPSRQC
The class given is functional.

Test [3] deals with T2, Equilibrative nucleoside transporter 1 (Homo sapiens, UniProt Q99808).
T2 sequence (Q99808 whole entry): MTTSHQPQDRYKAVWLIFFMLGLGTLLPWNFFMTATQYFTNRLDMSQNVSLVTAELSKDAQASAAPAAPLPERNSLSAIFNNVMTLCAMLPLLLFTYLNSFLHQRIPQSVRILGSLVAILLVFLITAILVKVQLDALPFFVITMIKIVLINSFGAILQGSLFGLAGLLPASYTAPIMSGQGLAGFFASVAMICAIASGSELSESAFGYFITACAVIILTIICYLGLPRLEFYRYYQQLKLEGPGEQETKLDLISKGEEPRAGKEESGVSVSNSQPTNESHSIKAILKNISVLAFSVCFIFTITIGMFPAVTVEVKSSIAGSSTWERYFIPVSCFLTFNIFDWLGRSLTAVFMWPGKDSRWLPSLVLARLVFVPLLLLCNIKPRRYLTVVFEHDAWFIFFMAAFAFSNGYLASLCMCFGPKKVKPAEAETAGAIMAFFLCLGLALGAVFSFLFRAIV

The target in test [4] is Sodium-dependent dopamine transporter (Homo sapiens, UniProt Q01959).
Sodium-dependent dopamine transporter, sequence (Q01959 whole entry): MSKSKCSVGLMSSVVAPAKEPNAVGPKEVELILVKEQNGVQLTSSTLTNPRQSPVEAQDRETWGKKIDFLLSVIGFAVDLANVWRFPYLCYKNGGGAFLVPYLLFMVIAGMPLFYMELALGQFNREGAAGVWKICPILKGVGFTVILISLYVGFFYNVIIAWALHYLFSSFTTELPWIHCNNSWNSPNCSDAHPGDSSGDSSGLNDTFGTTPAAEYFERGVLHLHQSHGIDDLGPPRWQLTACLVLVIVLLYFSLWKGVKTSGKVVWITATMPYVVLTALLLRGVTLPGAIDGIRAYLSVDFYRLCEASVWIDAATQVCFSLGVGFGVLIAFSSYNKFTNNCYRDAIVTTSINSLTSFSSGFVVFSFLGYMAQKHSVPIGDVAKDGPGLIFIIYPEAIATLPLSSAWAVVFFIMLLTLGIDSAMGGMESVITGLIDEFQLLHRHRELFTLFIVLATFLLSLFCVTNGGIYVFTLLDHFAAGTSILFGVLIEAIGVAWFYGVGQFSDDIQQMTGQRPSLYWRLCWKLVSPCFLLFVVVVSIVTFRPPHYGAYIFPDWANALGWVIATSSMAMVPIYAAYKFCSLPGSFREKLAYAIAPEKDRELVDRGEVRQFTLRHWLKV
In test [5] the target is Gamma-aminobutyric acid receptor subunit alpha-1 (Rattus norvegicus, UniProt P62813).
Gamma-aminobutyric acid receptor subunit alpha-1, sequence (P62813 whole entry): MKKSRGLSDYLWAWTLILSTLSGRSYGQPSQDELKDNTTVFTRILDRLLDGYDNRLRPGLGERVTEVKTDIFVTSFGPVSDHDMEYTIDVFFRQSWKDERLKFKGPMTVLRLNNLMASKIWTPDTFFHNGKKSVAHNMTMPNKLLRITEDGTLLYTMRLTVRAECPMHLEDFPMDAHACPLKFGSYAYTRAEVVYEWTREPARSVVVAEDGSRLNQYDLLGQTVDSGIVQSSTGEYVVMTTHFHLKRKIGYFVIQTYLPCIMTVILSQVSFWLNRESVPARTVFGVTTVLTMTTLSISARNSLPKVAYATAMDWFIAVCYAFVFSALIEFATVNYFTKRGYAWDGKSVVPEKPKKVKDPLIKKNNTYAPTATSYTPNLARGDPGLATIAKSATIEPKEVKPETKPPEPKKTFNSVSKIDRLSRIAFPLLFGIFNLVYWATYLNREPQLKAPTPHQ
Test [6] deals with Vasopressin V1a receptor (Homo sapiens, UniProt P37288).
Vasopressin V1a receptor, sequence (P37288 whole entry): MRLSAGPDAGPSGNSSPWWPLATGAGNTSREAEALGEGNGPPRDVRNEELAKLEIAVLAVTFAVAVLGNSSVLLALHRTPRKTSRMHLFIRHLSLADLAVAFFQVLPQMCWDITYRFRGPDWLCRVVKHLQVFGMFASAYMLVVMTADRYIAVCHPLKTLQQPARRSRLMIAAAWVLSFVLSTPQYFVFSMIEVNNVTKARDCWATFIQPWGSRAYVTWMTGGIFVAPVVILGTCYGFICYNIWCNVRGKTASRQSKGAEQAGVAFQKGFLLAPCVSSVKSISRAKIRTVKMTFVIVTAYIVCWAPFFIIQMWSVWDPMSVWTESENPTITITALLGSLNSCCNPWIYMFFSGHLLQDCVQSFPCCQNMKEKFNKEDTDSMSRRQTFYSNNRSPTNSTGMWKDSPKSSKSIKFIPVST
Test [7] deals with Voltage-gated inwardly rectifying potassium channel KCNH2 (Homo sapiens, UniProt Q12809). It is filed as functional. The settings on record: read-out: AC50.
Voltage-gated inwardly rectifying potassium channel KCNH2, sequence (Q12809 whole entry): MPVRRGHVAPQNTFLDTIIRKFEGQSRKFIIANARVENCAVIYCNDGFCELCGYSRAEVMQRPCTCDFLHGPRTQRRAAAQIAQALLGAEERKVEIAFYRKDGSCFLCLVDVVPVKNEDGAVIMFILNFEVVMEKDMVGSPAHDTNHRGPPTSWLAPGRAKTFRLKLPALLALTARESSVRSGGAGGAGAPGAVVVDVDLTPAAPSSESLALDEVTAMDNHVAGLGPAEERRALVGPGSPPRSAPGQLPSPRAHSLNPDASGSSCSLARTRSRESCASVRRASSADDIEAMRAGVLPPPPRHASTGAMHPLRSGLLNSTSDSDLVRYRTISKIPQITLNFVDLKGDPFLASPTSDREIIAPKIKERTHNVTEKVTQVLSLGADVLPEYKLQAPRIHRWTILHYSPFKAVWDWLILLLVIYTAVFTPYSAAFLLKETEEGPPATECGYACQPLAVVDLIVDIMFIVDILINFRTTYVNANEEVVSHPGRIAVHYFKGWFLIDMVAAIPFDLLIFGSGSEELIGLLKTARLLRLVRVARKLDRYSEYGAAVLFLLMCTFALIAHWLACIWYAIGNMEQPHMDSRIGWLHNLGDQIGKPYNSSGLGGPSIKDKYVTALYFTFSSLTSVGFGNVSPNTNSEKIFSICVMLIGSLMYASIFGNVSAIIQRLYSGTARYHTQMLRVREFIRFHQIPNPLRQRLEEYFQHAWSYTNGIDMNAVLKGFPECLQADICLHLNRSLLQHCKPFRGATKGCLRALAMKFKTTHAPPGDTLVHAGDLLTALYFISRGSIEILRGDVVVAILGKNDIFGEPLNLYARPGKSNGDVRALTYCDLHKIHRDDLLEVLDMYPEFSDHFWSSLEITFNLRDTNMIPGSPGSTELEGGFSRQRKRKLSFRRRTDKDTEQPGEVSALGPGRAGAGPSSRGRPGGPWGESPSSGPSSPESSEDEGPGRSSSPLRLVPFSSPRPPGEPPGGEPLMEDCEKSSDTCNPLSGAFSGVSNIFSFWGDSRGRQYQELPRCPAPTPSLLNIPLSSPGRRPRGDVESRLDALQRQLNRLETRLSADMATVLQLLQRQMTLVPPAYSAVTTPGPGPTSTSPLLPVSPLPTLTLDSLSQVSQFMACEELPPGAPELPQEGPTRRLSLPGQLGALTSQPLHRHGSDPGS
Test [8] deals with T3, Type-1 angiotensin II receptor (Homo sapiens, UniProt P30556).
T3 sequence (P30556 whole entry): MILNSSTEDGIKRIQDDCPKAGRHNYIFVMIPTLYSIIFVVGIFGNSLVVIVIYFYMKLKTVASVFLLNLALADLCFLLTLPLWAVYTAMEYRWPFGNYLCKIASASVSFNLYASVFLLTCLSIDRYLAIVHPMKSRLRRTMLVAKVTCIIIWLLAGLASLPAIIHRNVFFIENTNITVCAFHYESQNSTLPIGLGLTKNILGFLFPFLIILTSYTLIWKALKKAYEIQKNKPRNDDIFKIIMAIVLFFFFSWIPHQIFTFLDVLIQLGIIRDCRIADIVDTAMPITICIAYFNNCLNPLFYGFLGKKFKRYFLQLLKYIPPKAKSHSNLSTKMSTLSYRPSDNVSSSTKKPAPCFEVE

For test [9], the target named is Histamine H3 receptor (Homo sapiens, UniProt Q9Y5N1).
Histamine H3 receptor, sequence (Q9Y5N1 whole entry): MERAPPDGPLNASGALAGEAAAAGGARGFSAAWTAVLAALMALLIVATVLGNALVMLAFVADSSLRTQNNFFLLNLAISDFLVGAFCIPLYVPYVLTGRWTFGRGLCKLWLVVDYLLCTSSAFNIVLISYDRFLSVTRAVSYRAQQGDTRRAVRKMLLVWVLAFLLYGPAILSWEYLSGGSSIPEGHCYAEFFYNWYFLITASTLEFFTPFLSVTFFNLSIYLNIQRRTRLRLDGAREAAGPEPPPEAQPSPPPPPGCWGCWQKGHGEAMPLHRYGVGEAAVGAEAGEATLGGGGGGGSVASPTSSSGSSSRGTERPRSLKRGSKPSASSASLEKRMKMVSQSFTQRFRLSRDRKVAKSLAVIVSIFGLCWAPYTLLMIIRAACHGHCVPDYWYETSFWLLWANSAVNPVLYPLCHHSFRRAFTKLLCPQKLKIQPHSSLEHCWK
The target in test [10] is 5-hydroxytryptamine receptor 2B (Homo sapiens, UniProt P41595). The class given is functional, cell-based.
5-hydroxytryptamine receptor 2B, sequence (P41595 whole entry): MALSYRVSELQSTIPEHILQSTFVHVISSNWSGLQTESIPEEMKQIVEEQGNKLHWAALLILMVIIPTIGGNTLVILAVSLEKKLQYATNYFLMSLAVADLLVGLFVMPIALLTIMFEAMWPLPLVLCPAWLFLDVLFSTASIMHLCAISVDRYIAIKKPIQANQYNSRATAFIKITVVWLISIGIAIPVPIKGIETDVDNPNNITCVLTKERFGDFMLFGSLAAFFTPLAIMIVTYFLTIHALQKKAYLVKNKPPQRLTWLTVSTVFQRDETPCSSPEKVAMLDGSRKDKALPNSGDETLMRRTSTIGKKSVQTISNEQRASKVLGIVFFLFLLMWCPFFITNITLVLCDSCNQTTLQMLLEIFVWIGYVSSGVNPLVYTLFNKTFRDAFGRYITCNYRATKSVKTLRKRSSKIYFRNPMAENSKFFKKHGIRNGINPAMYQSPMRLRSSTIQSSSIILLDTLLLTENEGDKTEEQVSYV
Test [11] has as its target T4, Alpha-2C adrenergic receptor (Homo sapiens, UniProt P18825).
T4 sequence (P18825 whole entry): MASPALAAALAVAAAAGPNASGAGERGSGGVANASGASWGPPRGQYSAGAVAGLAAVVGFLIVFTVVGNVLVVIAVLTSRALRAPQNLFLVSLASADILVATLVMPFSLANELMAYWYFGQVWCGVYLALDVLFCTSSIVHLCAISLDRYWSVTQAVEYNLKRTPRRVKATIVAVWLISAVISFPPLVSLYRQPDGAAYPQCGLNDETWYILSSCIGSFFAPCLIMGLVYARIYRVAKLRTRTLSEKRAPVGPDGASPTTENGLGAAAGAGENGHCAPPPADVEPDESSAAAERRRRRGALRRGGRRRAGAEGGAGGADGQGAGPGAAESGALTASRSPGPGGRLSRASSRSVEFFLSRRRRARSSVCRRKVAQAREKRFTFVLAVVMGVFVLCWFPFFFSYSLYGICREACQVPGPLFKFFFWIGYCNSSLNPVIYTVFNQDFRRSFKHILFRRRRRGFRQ
The class given is functional.

Test [12] addresses D(1A) dopamine receptor (Homo sapiens, UniProt P21728). The class given is functional, cell-based.
For test [13], the target named is T5, Estrogen receptor (Homo sapiens, UniProt P03372).
T5 sequence (P03372 whole entry): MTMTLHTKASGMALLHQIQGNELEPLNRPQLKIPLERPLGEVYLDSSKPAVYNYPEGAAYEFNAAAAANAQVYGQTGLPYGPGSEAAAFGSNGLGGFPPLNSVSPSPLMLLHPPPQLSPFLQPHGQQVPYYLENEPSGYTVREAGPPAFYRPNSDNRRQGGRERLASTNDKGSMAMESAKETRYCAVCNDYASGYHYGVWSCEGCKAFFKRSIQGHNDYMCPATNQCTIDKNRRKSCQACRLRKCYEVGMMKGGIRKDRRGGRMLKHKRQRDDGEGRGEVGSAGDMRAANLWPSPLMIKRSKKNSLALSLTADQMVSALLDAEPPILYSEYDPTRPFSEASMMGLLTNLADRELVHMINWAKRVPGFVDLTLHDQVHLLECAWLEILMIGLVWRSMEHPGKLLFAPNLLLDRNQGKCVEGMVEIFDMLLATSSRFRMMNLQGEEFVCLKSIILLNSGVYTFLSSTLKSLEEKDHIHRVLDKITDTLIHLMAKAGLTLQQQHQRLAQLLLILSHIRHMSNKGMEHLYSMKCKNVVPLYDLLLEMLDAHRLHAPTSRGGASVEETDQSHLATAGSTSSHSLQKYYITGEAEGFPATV

Usually AC50 stands for the concentration giving half of the maximal activity seen.

Molecules are shown by their SMILES.
Further: assay procedure not described here.

D(1A) dopamine receptor, sequence (P21728 whole entry): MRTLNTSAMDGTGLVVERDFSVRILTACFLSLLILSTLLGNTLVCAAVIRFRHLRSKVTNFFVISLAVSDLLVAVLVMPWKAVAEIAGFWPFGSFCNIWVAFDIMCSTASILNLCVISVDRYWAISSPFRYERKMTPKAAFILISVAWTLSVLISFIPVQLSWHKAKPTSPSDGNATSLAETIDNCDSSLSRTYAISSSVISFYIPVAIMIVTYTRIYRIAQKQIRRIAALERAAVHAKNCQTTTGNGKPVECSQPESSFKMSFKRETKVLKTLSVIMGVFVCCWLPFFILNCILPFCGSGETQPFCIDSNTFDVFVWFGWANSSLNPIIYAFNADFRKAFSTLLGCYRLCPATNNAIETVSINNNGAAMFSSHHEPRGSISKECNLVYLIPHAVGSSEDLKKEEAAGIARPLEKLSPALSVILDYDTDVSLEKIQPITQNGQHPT
3',5'-cyclic-AMP phosphodiesterase 4D, sequence (Q08499 whole entry): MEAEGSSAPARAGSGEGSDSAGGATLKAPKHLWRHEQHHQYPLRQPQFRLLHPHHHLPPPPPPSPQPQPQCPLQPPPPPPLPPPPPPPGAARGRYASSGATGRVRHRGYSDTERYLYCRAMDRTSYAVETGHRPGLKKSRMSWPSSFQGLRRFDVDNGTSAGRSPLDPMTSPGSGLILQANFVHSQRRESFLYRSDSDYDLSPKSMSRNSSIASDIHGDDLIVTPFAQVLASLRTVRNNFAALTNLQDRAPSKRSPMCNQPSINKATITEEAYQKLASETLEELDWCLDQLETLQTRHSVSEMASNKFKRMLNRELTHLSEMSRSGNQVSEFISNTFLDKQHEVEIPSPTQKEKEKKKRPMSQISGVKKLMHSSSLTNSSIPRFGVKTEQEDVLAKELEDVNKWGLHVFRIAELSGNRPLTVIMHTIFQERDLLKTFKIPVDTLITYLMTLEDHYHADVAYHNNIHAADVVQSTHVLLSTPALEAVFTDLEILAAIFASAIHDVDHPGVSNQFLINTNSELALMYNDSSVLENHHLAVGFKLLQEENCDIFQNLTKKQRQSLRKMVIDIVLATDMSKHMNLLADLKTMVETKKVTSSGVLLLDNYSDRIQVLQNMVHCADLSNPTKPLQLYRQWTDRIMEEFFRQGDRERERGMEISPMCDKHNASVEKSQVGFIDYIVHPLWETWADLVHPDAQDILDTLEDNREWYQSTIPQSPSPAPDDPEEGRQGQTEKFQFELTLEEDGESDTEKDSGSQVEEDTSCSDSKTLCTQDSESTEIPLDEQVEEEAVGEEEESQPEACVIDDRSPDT

For `C=C[C@@]1(C)CC(=O)[C@]2(O)[C@@]3(C)[C@@H](O)CCC(C)(C)[C@@H]3[C@H](OC(=O)CCN(C)C)[C@H](OC(C)=O)[C@@]2(C)O1`, the AC50 in [1], in test [2], in [3], in test [4], in [5] and in test [6] was over 30 µM in each case. Besides, the AC50 in test [7] is 7.8 µM; in [8], over 30 µM; in [9], over 30 µM; in test [10], over 30 µM; in [11], over 30 µM.
On to `NS(=O)(=O)c1cc2c(cc1C(F)(F)F)NC(Cc1ccccc1)NS2(=O)=O` (stereo unspecified) [BENDROFLUMETHIAZIDE], for which the AC50 is over 30 µM in test [1]; over 10 µM in test [2]; over 30 µM in test [3]; 3.2 µM in test [4]; over 10 µM in test [5]; over 10 µM in test [12]. For the same compound, the AC50 in [6] was over 10 µM; in test [7], over 30 µM; in test [8] it was over 10 µM; in test [9] it was over 10 µM; in [10] it was over 10 µM; in [11], over 10 µM.
As to `CS(=O)(=O)OCCCCOS(C)(=O)=O` [BUSULFAN], the AC50 in test [1], in test [13], in [3], in test [4], in [12] and in test [7] was over 30 µM in each case. The AC50 in test [8], in test [9], in [10] and in test [11] was over 30 µM in each case.
Consider `COCCOC(=O)C1=C(C)NC(C)=C(C(=O)OC/C=C/c2ccccc2)C1c1cccc([N+](=O)[O-])c1` (stereo unspecified) [CILNIDIPINE], for which the AC50 in test [1] was 8.2 µM; in test [2], over 30 µM; in test [3] it was 26 µM; in test [4], over 30 µM; in [5], over 30 µM; in test [12], over 30 µM. Moreover, the AC50 in test [6], in [7], in test [8], in test [9], in test [10] and in test [11] was over 30 µM in each case.
Take `N[C@H](Cc1cc(I)c(Oc2cc(I)c(O)c(I)c2)c(I)c1)C(=O)O` [DEXTROTHYROXINE]: the AC50 in test [1] is 0.26 µM; in test [2], over 10 µM; in [3] it was over 30 µM; in test [4] it was over 30 µM; in [5], over 10 µM; in [12], over 10 µM. Moreover, the AC50 in test [6] is over 30 µM; in [7] it was over 30 µM; in test [8], over 30 µM; in test [9], over 10 µM; in test [10], over 10 µM; in test [11] it was over 10 µM.
With `CC1(C)C(/C=C/C=C/C=C/C=C2\N(CCCCS(=O)(=O)O)c3ccc4ccccc4c3C2(C)C)=[N+](CCCCS(=O)(=O)[O-])c2ccc3ccccc3c21` [INDOCYANINE GREEN ACID FORM], the AC50 turned out to be 2.3 µM in test [1]; 9.2 µM in [2]; 11 µM in test [3]; 7.7 µM in test [6]; 6.5 µM in test [7]; 9 µM in test [8]. The AC50 in test [11] is 9.7 µM.
Take `CC(C)OC(=O)C(C(=O)OC(C)C)=C1SC=CS1` [MALOTILATE]: the AC50 in test [1] was 4.2 µM; in test [2], over 30 µM; in test [3], over 30 µM; in test [4], over 30 µM; in [5], over 30 µM; in [12] it was over 30 µM. Also, the AC50 in [6], in [7], in test [8], in test [9], in [10] and in [11] was over 30 µM in each case.
For the compound `O=C1Nc2ccc(Cl)cc2C(c2ccccc2)=NC1O` (stereo unspecified) [OXAZEPAM], the AC50 was over 10 µM in test [1]; over 10 µM in [2]; over 30 µM in [3]; over 10 µM in test [4]; over 10 µM in test [5]; over 10 µM in test [12]. Also, the AC50 in [6] is over 10 µM; in test [8], over 30 µM; in [9], over 10 µM; in [10] it was over 10 µM; in test [11] it was over 10 µM.
Take `CCN(CC)CC(=O)Oc1ccc(NC(C)=O)cc1` [PROPACETAMOL]: the AC50 in [1], in test [2], in test [3], in test [4], in [5] and in [12] was over 30 µM each time. Further, the AC50 in test [6], in test [7], in [8], in test [9], in [10] and in [11] was over 30 µM in each case.
`CN1CCN(c2c(F)cc3c(=O)c(C(=O)O)cn4c3c2SCC4)CC1` [RUFLOXACIN]: the AC50 in test [1], in [2], in test [4], in test [5], in test [12] and in test [6] was over 30 µM throughout. The AC50 in [7], in test [8], in test [9], in test [10] and in test [11] was over 30 µM each time.
For the compound `COc1c(O[C@@H]2O[C@H](CO)[C@@H](O)[C@H](O)[C@H]2O)cc2c(c1OC)-c1ccc(SC)c(=O)cc1[C@@H](NC(C)=O)CC2` [THIOCOLCHICOSIDE], the AC50 in test [1] is over 30 µM; in test [2], over 30 µM; in [4] it was over 30 µM; in test [5] it was 6.2 µM; in test [12], over 30 µM; in [6], over 30 µM. The AC50 in [7], in test [8], in test [9], in [10] and in test [11] was over 30 µM in each case.
